Results on 36 compounds are retold here after US20160137639A1, “TRIAZOLE-ISOXAZOLE COMPOUND AND MEDICAL USE THEREOF” (JAPAN TOBACCO INC., priority 2012, published 2016).

By EC50 is commonly meant the concentration at which the effect is half-maximal.

One experiment deals with T1, human RORγ (Homo sapiens, UniProt P51449).
T1 construct: human, NM_005060.3 and from Ser253 to Lys518; expressed in transfected cells; host or cells: CHO cells (transient co-transfection with pG5-Luc reporter)
T1 sequence (P51449 253-518): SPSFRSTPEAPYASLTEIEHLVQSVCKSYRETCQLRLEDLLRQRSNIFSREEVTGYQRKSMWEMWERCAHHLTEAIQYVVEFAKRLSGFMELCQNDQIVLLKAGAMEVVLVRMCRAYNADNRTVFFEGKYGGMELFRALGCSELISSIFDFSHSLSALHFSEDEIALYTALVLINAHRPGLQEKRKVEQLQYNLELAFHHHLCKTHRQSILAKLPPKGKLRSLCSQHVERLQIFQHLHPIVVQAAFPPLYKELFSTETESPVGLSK
As to the kind of experiment: Luciferase reporter gene assay of inhibitory effect against RORγ transcriptional activity (GAL4-hRORγ plasmid in CHO cells). In kind it is cell-based. The conditions noted are these: read-out: LUC EC50 hRORg. For orientation: In a reporter assay the amount or activity of a reporter protein is the signal.

For the next experiment, the target named is T2, mouse RORγ (Mus musculus, UniProt P51450).
T2 construct: mouse, NM_011281.2 and from Ile251 to Lys516; expressed in transfected cells; host or cells: CHO cells (transient co-transfection with pG5-Luc reporter)
T2 sequence (P51450 251-516): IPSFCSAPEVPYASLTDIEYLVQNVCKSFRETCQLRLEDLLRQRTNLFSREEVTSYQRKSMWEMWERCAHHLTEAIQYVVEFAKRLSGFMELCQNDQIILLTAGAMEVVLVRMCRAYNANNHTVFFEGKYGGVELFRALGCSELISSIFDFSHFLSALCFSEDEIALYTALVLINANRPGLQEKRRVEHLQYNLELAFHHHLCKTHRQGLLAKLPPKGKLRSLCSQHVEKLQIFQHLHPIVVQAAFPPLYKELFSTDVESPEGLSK
Kind of experiment: Luciferase reporter gene assay of inhibitory effect against RORγ transcriptional activity (GAL4-mRORγ plasmid in CHO cells). In kind it is cell-based. To be noted: read-out: LUC EC50 mRORg. In short, it runs like this: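 Readout is intracellular luciferase after 2-day compound exposure (8 concentrations, 0.1% DMSO) in CHO cells expressing GAL4 fused to mouse RORγ LBD residues Ile251–Lys516 plus pG5-Luc reporter. EC50 fitted from %-of-control; points showing resazurin-detected cytotoxicity dropped.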

For `Cc1ccc(NC(=O)C[C@H](C[C@@H](C)O)c2nnc([C@H]3C[C@@H](CC(C)C)C3)n2C2CC2)c(C)c1` [Example F-560], the EC50 at human RORγ and on mouse RORγ was under 3 µM in each case.
Turning to `Cc1ccc(NC(=O)C[C@H](CCO)c2nnc([C@H]3C[C@@H](CC(C)(C)C)C3)n2C2CC2)c(C)c1` [Example F-561], the EC50 on human RORγ and on mouse RORγ was under 3 µM in each case.
Turning to `Cc1ccc(NC(=O)C[C@H](CC(F)(F)F)c2nnc(-c3cc(CC(C)C)on3)n2C2CC2)c(C)c1` [Example F-567], the EC50 at human RORγ and on mouse RORγ was under 3 µM throughout.
On to `Cc1ccc(NC(=O)C[C@H](CC(F)(F)F)c2nnc([C@H]3C[C@@H](CC(C)C)C3)n2C2CC2)c(C)c1` [Example F-568], for which the EC50 on human RORγ and on mouse RORγ was under 3 µM in each case.
Turning to `CCO[C@@H](CC(=O)Nc1ccc(C)cc1C)c1nnc(-c2cc(CC(C)C)on2)n1C1CC1` [Example F-569], the concentration for a half-maximal effect (EC50) on human RORγ and at mouse RORγ was under 3 µM each time.
For the compound `Cc1ccc(NC(=O)[C@H]2CC(F)(F)C[C@@H]2c2nnc([C@H]3C[C@@H](CC(C)C)C3)n2C2CC2)c(C)c1` [Example F-571], the EC50 at human RORγ and at mouse RORγ was under 3 µM in each case.
On to `Cc1ccc(NC(=O)[C@@H]2CC(F)(F)C[C@H]2c2nnc([C@H]3C[C@@H](CC(C)C)C3)n2C2CC2)c(C)c1` [Example F-572], for which the concentration for a half-maximal effect (EC50) on human RORγ and on mouse RORγ was under 3 µM throughout.
Consider `Cc1ccc(NC(=O)C[C@H](C[C@H](C)O)c2nnc([C@H]3C[C@@H](CC(C)C)C3)n2C2CC2)c(C)c1` [Example F-574], for which the concentration for a half-maximal effect (EC50) at human RORγ and at mouse RORγ was under 3 µM each time.
Take `Cc1ccc(NC(=O)C[C@H](OC(C)C)c2nnc(-c3cc(CC(C)C)on3)n2C2CC2)c(C)c1` [Example F-575]: the EC50 at human RORγ and at mouse RORγ was under 3 µM in each case.
For the compound `Cc1cc(F)ccc1NC(=O)C[C@H](OC(C)C)c1nnc(-c2cc(CC(C)C)on2)n1C1CC1` [Example F-576], the concentration giving a half-maximal response (EC50) on human RORγ and at mouse RORγ was under 3 µM throughout.
With `Cc1ccc(NC(=O)C[C@H](CCO)c2noc([C@H]3C[C@@H](CC(C)C)C3)c2C2CC2)c(C)c1` [Example F-578], the concentration for a half-maximal effect (EC50) at human RORγ and on mouse RORγ was under 3 µM each time.
In the case of `Cc1ccc(NC(=O)C[C@@H](CCO)c2noc([C@H]3C[C@@H](CC(C)C)C3)c2C2CC2)c(C)c1` [Example F-579], the EC50 at human RORγ and on mouse RORγ was under 3 µM throughout.
Regarding `Cc1ccc(NC(=O)CC(CCO)c2noc(C3CC(CC(C)C)C3)c2C2CC2)c(C)c1` (stereo not drawn) [Example F-580], the EC50 on human RORγ and at mouse RORγ was under 3 µM throughout.
With `Cc1ccc(NC(=O)C[C@H](OCc2ccccc2)c2nnc([C@H]3C[C@@H](CC(C)C)C3)n2C2CC2)c(C)c1` [Example F-581], the concentration giving a half-maximal response (EC50) at human RORγ and on mouse RORγ was under 3 µM each time.
Consider `Cc1ccc(NC(=O)C[C@H](OCC(C)C)c2nnc([C@H]3C[C@@H](CC(C)C)C3)n2C2CC2)c(C)c1` [Example F-582], for which the EC50 on human RORγ and at mouse RORγ was under 3 µM in each case.
`CC(C)Cc1cc(-c2nnc([C@H](CC(=O)Nc3cccc4c3OC(F)(F)O4)OC(C)C)n2C2CC2)no1` [Example F-584]: the half-maximal effective concentration (EC50) was over 3 µM at human RORγ and under 3 µM at mouse RORγ.
The matching figures for `Cc1ccc(NC(=O)C[C@H](CC(C)C)c2nnc(-c3cc(CC(C)C)on3)n2C2CC2)c(C)c1` [Example F-586]: under 3 µM and under 3 µM.
Turning to `Cc1ccc(NC(=O)C[C@H](CCO)c2nnc([C@H]3C[C@@H](CC(F)(F)F)C3)n2C2CC2)c(C)c1` [Example F-587], the EC50 at human RORγ and at mouse RORγ was under 3 µM each time.
For `Cc1cc(F)ccc1NC(=O)C[C@H](CCO)c1nnc([C@H]2C[C@@H](CC(F)(F)F)C2)n1C1CC1` [Example F-588], the values for the concentration for a half-maximal effect (EC50) at human RORγ and at mouse RORγ were over 3 µM and under 3 µM, respectively.
With `Cc1c(F)cccc1NC(=O)C[C@H](CCO)c1nnc([C@H]2C[C@@H](CC(F)(F)F)C2)n1C1CC1` [Example F-589], the half-maximal effective concentration (EC50) at human RORγ and on mouse RORγ was over 3 µM throughout.
With `Cc1ccc(NC(=O)C[C@H](CC(C)C)c2nnc([C@H]3C[C@@H](CC(C)C)C3)n2C2CC2)c(C)c1` [Example F-590], the EC50 at human RORγ and at mouse RORγ was under 3 µM in each case.
Consider `Cc1ccc(NC(=O)C[C@H](CC(C)C)c2nnc(-c3cc(CC(C)C)no3)n2C2CC2)c(C)c1` [Example F-591], for which the EC50 on human RORγ and at mouse RORγ was under 3 µM in each case.
`Cc1cc(F)ccc1NC(=O)[C@H]1CC(F)(F)C[C@@H]1c1nnc(-c2cc(CC(C)C)on2)n1C1CC1` [Example F-592]: the EC50 on human RORγ and on mouse RORγ was under 3 µM throughout.
Consider `Cc1cc(F)ccc1NC(=O)[C@@H]1CC(F)(F)C[C@H]1c1nnc(-c2cc(CC(C)C)on2)n1C1CC1` [Example F-593], for which the results for the EC50 at human RORγ and at mouse RORγ were over 3 µM and under 3 µM, respectively.
On to `Cc1cc(F)ccc1NC(=O)C[C@H](CCO)c1nnc([C@H]2C[C@@H](CC(C)C)C2)n1C1CC1` [Example F-594], for which the 50% effective concentration (EC50) at human RORγ and on mouse RORγ was under 3 µM in each case.
In the case of `Cc1ccc(NC(=O)[C@H]2CN(CC(C)C)C[C@@H]2c2nnc([C@H]3C[C@@H](CC(C)C)C3)n2C2CC2)c(C)c1` [Example F-596], the 50% effective concentration (EC50) at human RORγ and on mouse RORγ was under 3 µM each time.
In the case of `Cc1ccc(NC(=O)[C@H]2CN(C(C)C)C[C@@H]2c2nnc([C@H]3C[C@@H](CC(C)C)C3)n2C2CC2)c(C)c1` [Example F-597], the concentration giving a half-maximal response (EC50) at human RORγ and at mouse RORγ was under 3 µM each time.
`Cc1ccc(NC(=O)C[C@@H](CC(C)(C)O)c2nnc([C@H]3C[C@@H](CC(C)C)C3)n2C2CC2)c(C)c1` [Example F-598]: the EC50 on human RORγ and on mouse RORγ was over 3 µM throughout.
Regarding `Cc1ccc(NC(=O)C[C@H](CC(C)(C)O)c2nnc([C@H]3C[C@@H](CC(C)C)C3)n2C2CC2)c(C)c1` [Example F-599], the EC50 at human RORγ and at mouse RORγ was under 3 µM each time.
Take `CC(=O)N1C[C@H](C(=O)Nc2ccc(F)cc2C)[C@@H](c2nnc([C@H]3C[C@@H](CC(C)C)C3)n2C2CC2)C1` [Example F-600]: the concentration giving a half-maximal response (EC50) at human RORγ and on mouse RORγ was under 3 µM in each case.
As to `Cc1ccc(NC(=O)C[C@H](CCO)c2nnc(C3CC4(CCC(C)(C)CC4)C3)n2C2CC2)c(C)c1` [Example F-602], the EC50 at human RORγ and at mouse RORγ was under 3 µM each time.
Turning to `CC(=O)N1C[C@H](C(=O)Nc2ccc(Cl)cc2C)[C@@H](c2nnc([C@H]3C[C@@H](CC(C)C)C3)n2C2CC2)C1` [Example F-603], the EC50 at human RORγ and at mouse RORγ was under 3 µM throughout.
Consider `CC(=O)N1C[C@H](C(=O)Nc2ccc(Cl)cc2F)[C@@H](c2nnc([C@H]3C[C@@H](CC(C)C)C3)n2C2CC2)C1` [Example F-604], for which the EC50 on human RORγ and at mouse RORγ was under 3 µM throughout.
`Cc1cc(Cl)ccc1NC(=O)C[C@H](CC(C)C)c1nnc(-c2cc(CC(C)C)on2)n1C1CC1` [Example F-606]: the half-maximal effective concentration (EC50) on human RORγ and at mouse RORγ was under 3 µM in each case.
Consider `Cc1cc(F)ccc1NC(=O)C[C@H](CC(C)C)c1nnc(-c2cc(CC(C)C)on2)n1C1CC1` [Example F-607], for which the half-maximal effective concentration (EC50) on human RORγ and on mouse RORγ was under 3 µM in each case.
`Cc1cc(Cl)ccc1NC(=O)C[C@H](CCO)c1nnc(-c2cc(CC(C)(C)C)on2)n1C1CC1` [Example F-608]: the EC50 at human RORγ and at mouse RORγ was under 3 µM throughout.
